What was measured:
Type in all cases: in vivo
[1] = test system: Echinochloa oryzacola Vasing.; test: Test Example 1: herbicidal activity, application before weed generation in submerged conditions (symbol A); settings: application herbicide amount 320 g/ha
How it was run: (§1)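 Mixed weed seeds sown in alluvial soil under 4 cm of water, with rice seedlings at the 2.5-leaf stage added. Same-day treatment: emulsion diluted to a set herbicide amount onto the water. Three weeks at 25–30 °C, then graded on a six-step scale.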

Scirpus juncoides [2] = test: Test Example 1: herbicidal activity, application before weed generation in submerged conditions (symbol B); settings: application herbicide amount 320 g/ha
How it was run: as §1

Monochoria vaginalis [3] = test: Test Example 1: herbicidal activity, application before weed generation in submerged conditions (symbol C); settings: application herbicide amount 320 g/ha
How it was run: as §1

transplanted rice plant = test: Test Example 1: effect on crop, application before weed generation in submerged conditions (symbol a); settings: application herbicide amount 320 g/ha
How it was run: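 Rice at 2.5 leaf stage transplanted into submerged soil (4 cm depth) sown with three weed species; herbicide applied before weed emergence.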

[4] = test system: Echinochloa oryzacola Vasing.; test: Test Example 2: herbicidal activity, application during weed generation in submerged conditions (symbol A); settings: Table 23; application herbicide amount 320 g/ha; grade 0-5 by criteria of Test Example 1
How it was run: (§2)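 Visual herbicidal ratings, taken three weeks after dosing, reflect post-emergence water-surface application to seedlings at one to two leaves. Conditions: co-sown weeds in alluvial soil flooded to 4 cm, greenhouse held at 25° C. to 30° C.; compound given as water-diluted emulsion at a fixed herbicide amount.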

Scirpus juncoides [5] = test: Test Example 2: herbicidal activity, application during weed generation in submerged conditions (symbol B); settings: Table 23; application herbicide amount 320 g/ha; grade 0-5 by criteria of Test Example 1
How it was run: as §2

Monochoria vaginalis [6] = test: Test Example 2: herbicidal activity, application during weed generation in submerged conditions (symbol C); settings: Table 23; application herbicide amount 320 g/ha; grade 0-5 by criteria of Test Example 1
How it was run: as §2

[7] = test system: Echinochloa crus-galli var. crus-galli; test: Test Example 3: herbicidal effect by foliage application, Wagner pot (symbol H); settings: application herbicide amount 320 g/ha
How it was run: (§3)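 Herbicidal activity was rated three weeks after a foliar spray of diluted emulsion concentrate, applied at a predetermined dose to plants grown for 14 days from seed in waterlogged alluvial soil within a 25–30 °C greenhouse.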

Leptochloa chinensis = test: Test Example 3: herbicidal effect by foliage application, Wagner pot (symbol D); settings: application herbicide amount 320 g/ha
How it was run: as §3

Cyperus difformis = test: Test Example 3: herbicidal effect by foliage application, Wagner pot (symbol E); settings: application herbicide amount 320 g/ha
How it was run: as §3

[8] = test system: directly sowed rice plant; test: Test Example 3: effect on crop by foliage application, Wagner pot (symbol b); settings: application herbicide amount 320 g/ha
How it was run: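 Greenhouse culture at 25–30 °C of seeded rice, Cyperus difformis, Leptochloa chinensis and Echinochloa crus-galli var. crus-galli, in alluvial soil held under 0.1–0.5 cm of water in a Wagner pot.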

Digitaria ciliaris = test: Test Example 5: herbicidal effect by foliage application, plastic box (symbol F); settings: 320 g/ha, 3 weeks after application
How it was run: (§4)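 Herbicide, formulated as an emulsion and diluted in water, is sprayed onto the aerial parts of 14-day seedlings. These were grown at 25° C. to 30° C. in sterilized diluvial soil; effects are graded after 3 weeks.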

Setaria viridis = test: Test Example 5: herbicidal effect by foliage application, plastic box (symbol G); settings: 320 g/ha, 3 weeks after application
How it was run: as §4

[9] = test system: Echinochloa crus-galli var. crus-galli; test: Test Example 5: herbicidal effect by foliage application, plastic box (symbol H); settings: 320 g/ha, 3 weeks after application
How it was run: as §4

Avena fatua = test: Test Example 5: herbicidal effect by foliage application, plastic box (symbol I); settings: 320 g/ha, 3 weeks after application
How it was run: as §4

Alopecurus myosuroides = test: Test Example 5: herbicidal effect by foliage application, plastic box (symbol J); settings: 320 g/ha, 3 weeks after application
How it was run: as §4

Lolium multiflorum Lam. = test: Test Example 5: herbicidal effect by foliage application, plastic box (symbol K); settings: 320 g/ha, 3 weeks after application
How it was run: as §4

Apera spica-venti = test: Test Example 5: herbicidal effect by foliage application, plastic box (symbol L); settings: 320 g/ha, 3 weeks after application
How it was run: as §4

Abutilon theophrasti = test: Test Example 5: herbicidal effect by foliage application, plastic box (symbol M); settings: 320 g/ha, 3 weeks after application
How it was run: as §4

Amaranthus retroflexus = test: Test Example 5: herbicidal effect by foliage application, plastic box (symbol N); settings: 320 g/ha, 3 weeks after application
How it was run: as §4

Chenopodium album = test: Test Example 5: herbicidal effect by foliage application, plastic box (symbol O); settings: 320 g/ha, 3 weeks after application
How it was run: as §4

Stellaria media = test: Test Example 5: herbicidal effect by foliage application, plastic box (symbol P); settings: 320 g/ha, 3 weeks after application
How it was run: as §4

Galium spurium = test: Test Example 5: herbicidal effect by foliage application, plastic box (symbol Q); settings: 320 g/ha, 3 weeks after application
How it was run: as §4

Veronica persica = test: Test Example 5: herbicidal effect by foliage application, plastic box (symbol R); settings: 320 g/ha, 3 weeks after application
How it was run: as §4

corn = test: Test Example 5: effect on crop by foliage application, plastic box (symbol c); settings: 320 g/ha, 3 weeks after application
How it was run: (§5)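 Soil: sterilized diluvial. Container: plastic box, 21 × 13 cm, 7 cm deep. Sowing: spot-like, ~1.5 cm cover. Growth: greenhouse, 25° C. to 30° C.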

soybean = test: Test Example 5: effect on crop by foliage application, plastic box (symbol d); settings: 320 g/ha, 3 weeks after application
How it was run: as §5

rice plant = test: Test Example 5: effect on crop by foliage application, plastic box (symbol b); settings: 320 g/ha, 3 weeks after application
How it was run: as §5

wheat = test: Test Example 5: effect on crop by foliage application, plastic box (symbol e); settings: 320 g/ha, 3 weeks after application
How it was run: as §5

beet = test: Test Example 5: effect on crop by foliage application, plastic box (symbol f); settings: 320 g/ha, 3 weeks after application
How it was run: as §5

rapeseed = test: Test Example 5: effect on crop by foliage application, plastic box (symbol g); settings: 320 g/ha, 3 weeks after application
How it was run: as §5

Row | SMILES | Herbicidal effect grade, A: Echinochloa oryzacola Vasing. [1] | Herbicidal effect grade, B: Scirpus juncoides (Scirpus juncoides [2]) | Herbicidal effect grade, C: Monochoria vaginalis (Monochoria vaginalis [3]) | Effect grade on crop, a: transplanted rice plant (transplanted rice plant) | Herbicidal effect grade, A: Echinochloa oryzacola Vasing. [4] | Herbicidal effect grade, B: Scirpus juncoides (Scirpus juncoides [5]) | Herbicidal effect grade, C: Monochoria vaginalis (Monochoria vaginalis [6]) | herbicidal effect on H (Echinochloa crus-galli var. crus-galli), grade 0-5 [7] | herbicidal effect on D (Leptochloa chinensis), grade 0-5 (Leptochloa chinensis) | herbicidal effect on E, grade 0-5 (Cyperus difformis) | effect on crop b (directly sowed rice plant), grade 0-5 [8] | F: Digitaria ciliaris, herbicidal effect grade (Digitaria ciliaris) | G: Setaria viridis, herbicidal effect grade (Setaria viridis) | H: Echinochloa crus-galli var. crus-galli, herbicidal effect grade [9] | I: Avena fatua, herbicidal effect grade (Avena fatua) | J: Alopecurus myosuroides, herbicidal effect grade (Alopecurus myosuroides) | K: Lolium multiflorum Lam., herbicidal effect grade (Lolium multiflorum Lam.) | L: Apera spica-venti, herbicidal effect grade (Apera spica-venti) | M: Abutilon theophrasti, herbicidal effect grade (Abutilon theophrasti) | N: Amaranthus retroflexus, herbicidal effect grade (Amaranthus retroflexus) | other results
1 | CON=C(C)CC1CC(O)=C(c2c(C)cc(-c3ccc(SC)cc3)cc2C)C1=O (mixture of isomers) [6-030] | 3 (Herbicidal ratio of 40% or higher and lower than 70%) | 0 (Herbicidal ratio of 5% or lower (almost no effect)) | 0 (Herbicidal ratio of 5% or lower (almost no effect)) | 2 (Herbicidal ratio of 20% or higher and lower than 40%) | 2 (Herbicidal ratio of 20% or higher and lower than 40%) | 0 (Herbicidal ratio of 5% or lower (almost no effect)) | 0 (Herbicidal ratio of 5% or lower (almost no effect)) | 4 (Herbicidal ratio of 70% or higher and lower than 90%) | 5 (Herbicidal ratio of 90% or more (almost completely withered)) | 0 (Herbicidal ratio of 5% or lower (almost no effect)) | 2 (Herbicidal ratio of 20% or higher and lower than 40%) | 4 (Herbicidal ratio of 70% or higher and lower than 90%) | 4 (Herbicidal ratio of 70% or higher and lower than 90%) | 1 (Herbicidal ratio of 5% or higher and lower than 20%) | 0 (Herbicidal ratio of 5% or lower (almost no effect)) | 1 (Herbicidal ratio of 5% or higher and lower than 20%) | 1 (Herbicidal ratio of 5% or higher and lower than 20%) | 0 (Herbicidal ratio of 5% or lower (almost no effect)) | 0 (Herbicidal ratio of 5% or lower (almost no effect)) | 0 (Herbicidal ratio of 5% or lower (almost no effect)) | O: Chenopodium album, herbicidal effect grade (Chenopodium album): 0 (Herbicidal ratio of 5% or lower (almost no effect)); P: Stellaria media, herbicidal effect grade (Stellaria media): 0 (Herbicidal ratio of 5% or lower (almost no effect)); Q: Galium spurium, herbicidal effect grade (Galium spurium): 0 (Herbicidal ratio of 5% or lower (almost no effect)); R: Veronica persica, herbicidal effect grade (Veronica persica): 0 (Herbicidal ratio of 5% or lower (almost no effect)); c: corn, effect on crop grade (corn): 0 (Herbicidal ratio of 5% or lower (almost no effect)); d: soybean, effect on crop grade (soybean): 0 (Herbicidal ratio of 5% or lower (almost no effect)); b: directly sowed rice plant, effect on crop grade (rice plant): 1 (Herbicidal ratio of 5% or higher and lower than 20%); e: wheat, effect on crop grade (wheat): 0 (Herbicidal ratio of 5% or lower (almost no effect)); f: beet, effect on crop grade (beet): 0 (Herbicidal ratio of 5% or lower (almost no effect)); g: rapeseed, effect on crop grade (rapeseed): 3 (Herbicidal ratio of 40% or higher and lower than 70%)
2 | CON=C(C)CC1CC(O)=C(c2c(C)cc(Oc3ccc(C(F)(F)F)cn3)cc2C)C1=O (mixture of isomers) [6-054] | 1 (Herbicidal ratio of 5% or higher and lower than 20%) | 0 (Herbicidal ratio of 5% or lower (almost no effect)) | 0 (Herbicidal ratio of 5% or lower (almost no effect)) | 2 (Herbicidal ratio of 20% or higher and lower than 40%) | 2 (Herbicidal ratio of 20% or higher and lower than 40%) | 1 (Herbicidal ratio of 5% or higher and lower than 20%) | 0 (Herbicidal ratio of 5% or lower (almost no effect)) | 5 (Herbicidal ratio of 90% or more (almost completely withered)) | 5 (Herbicidal ratio of 90% or more (almost completely withered)) | 3 (Herbicidal ratio of 40% or higher and lower than 70%) | 5 (Herbicidal ratio of 90% or more (almost completely withered)) | 4 (Herbicidal ratio of 70% or higher and lower than 90%) | 5 (Herbicidal ratio of 90% or more (almost completely withered)) | 5 (Herbicidal ratio of 90% or more (almost completely withered)) | 3 (Herbicidal ratio of 40% or higher and lower than 70%) | 5 (Herbicidal ratio of 90% or more (almost completely withered)) | 4 (Herbicidal ratio of 70% or higher and lower than 90%) | 5 (Herbicidal ratio of 90% or more (almost completely withered)) | 0 (Herbicidal ratio of 5% or lower (almost no effect)) | 0 (Herbicidal ratio of 5% or lower (almost no effect)) | O: Chenopodium album, herbicidal effect grade (Chenopodium album): 4 (Herbicidal ratio of 70% or higher and lower than 90%); P: Stellaria media, herbicidal effect grade (Stellaria media): 0 (Herbicidal ratio of 5% or lower (almost no effect)); Q: Galium spurium, herbicidal effect grade (Galium spurium): 0 (Herbicidal ratio of 5% or lower (almost no effect)); R: Veronica persica, herbicidal effect grade (Veronica persica): 0 (Herbicidal ratio of 5% or lower (almost no effect)); c: corn, effect on crop grade (corn): 4 (Herbicidal ratio of 70% or higher and lower than 90%); d: soybean, effect on crop grade (soybean): 0 (Herbicidal ratio of 5% or lower (almost no effect)); b: directly sowed rice plant, effect on crop grade (rice plant): 3 (Herbicidal ratio of 40% or higher and lower than 70%); e: wheat, effect on crop grade (wheat): 0 (Herbicidal ratio of 5% or lower (almost no effect)); f: beet, effect on crop grade (beet): 0 (Herbicidal ratio of 5% or lower (almost no effect)); g: rapeseed, effect on crop grade (rapeseed): 1 (Herbicidal ratio of 5% or higher and lower than 20%)

— patent publication US11000033B2, “Ketone or oxime compound, and herbicide” (NISSAN CHEMICAL CORPORATION, priority 2014, dated 2021)
